Measured values from US20090118365A1, “Use of Prodrugs of GABA B Agonists for Treating Neuropathic and Musculoskeletal Pain” (XenoPort, Inc, priority 2007, published 2009).

Experiments:
[1] = in vivo; cited from earlier work
[2] = rat, in vivo, 10 mg
Procedure: Rats were obtained commercially and were pre-cannulated in the both the ascending colon and the jugular vein. Animals were conscious at the time of the experiment. All animals were fasted overnight and until 4 hours post-dosing. […] Blood samples were analyzed as described according to the following procedure. […]
An API 2000 LC/MS/MS spectrometer equipped with Shimadzu 10ADVp binary pumps and a CTC HTS-PAL autosampler was used in the analysis. […] The peaks were integrated using Analyst 1.2 quantitation software.

[3] = male, cynomolgus monkey, in vivo
Source text: The following method can be used to determine the oral bioavailability of GABAB agonist prodrugs provided by the present disclosure in Cymologous monkeys, and therefore the appropriateness of the GABAB agonist prodrugs for use in oral sustained release dosage forms for treating neuropathic and musculoskeletal pain.
All plasma samples were subsequently analyzed for (R)-baclofen and intact prodrug using the LC/MS/MS assay described above.

maximum plasma concentration of (R)-baclofen (Cmax) relative to colonic administration of (R)-baclofen itself [2] [fold]	oral bioavailability as (R)-baclofen [3]	Compound	elimination half-life [1] [h]
–	–	NCC(CC(=O)O)c1ccc(Cl)cc1 (racemic) [baclofen, (±)-4-Amino-3-(4-chlorophenyl)butanoic acid]	3 to 4
> 2	greater than 80%	CC(C)C(=O)O[C@@H](OC(=O)NC[C@H](CC(=O)O)c1ccc(Cl)cc1)C(C)C [compound (4), (3R)-4-{[(1S)-2-methyl-1-(2-methylpropanoyloxy)propoxy]carbonylamino}-3-(4-chlorophenyl)butanoic acid]	–
